The text below walks through data of patent US4659696A, “Pharmaceutical composition and its nasal or vaginal use” (Takeda Chemical Industries, Ltd., priority 1982, dated 1987).

Read-outs that look alike come from different tables or passages of the source.

The conditions of series [1]: rats, rectal suspension, 5-FU 50 mg/kg.
Method: An amount (corresponding to 50 mg/kg) of 5-FU and 5 mg of α-cyclodextrin are finely milled in a mortar and added to 0.1 ml of physiological saline. The mixture is subjected to ultrasonic treatment (27 KHz, 5 minutes). The thus-obtained suspension is rectally administered to rats in the manner in Experimental Example 7. Blood samples are taken from the tail vein at timed intervals and 5-FU plasma levels are determined by bioassay using Micrococcus luteus ATCC-10240 as the test organism. In the control group, the procedure is followed with α-cyclodextrin-free 5-FU.
A further series can be described thus: in vivo. Particulars: female, SD, rat, 100 ug/kg, Concentration of TAP-144 in serum.
The conditions of series [2]: rat, in vivo.
Method: (§1) SD-strain mature female rats (weighing about 270 g, 14 to 18 weeks old, in groups of 4 to 5 individuals) at diestrus as selected by the vaginal smear test covering a period of at least one week are anesthetized with pentobarbital and phenobarbital at 8-11 a.m., and a solution prepared by dissolving 500 μg of TAP-144 and 20 mg (2%), 50 mg (5%) or 100 mg (10%) of α-cyclodextrin in physiological saline in an amount to make 1 ml is administered into the vagina with about 12 mg of cotton soaked therewith at the dose level of 0.2 ml/kg (corresponding 100 μg/kg of TAP-144). Blood samples are taken from the tail vein at timed intervals and assayed for the serum TAP-144 level by radioimmunoassay [refer to Endocrinologia Japonica, vol.
The conditions of series [3]: rat, in vivo. Here is the method: Male SD strain rats (body weights 250 g, approx.) fasted for 16 hours are used in groups of at least 3 animals. Each animal is anesthetized with pentobarbital and administered nasal medication in accordance with the method described in International Journal of Pharmaceutics 7, 317 (1981). Then, 0.1 ml/kg of insulin solution is directly administered into the nasal cavity with a micropipette via the nostril.
In 0.1 ml of physiological saline are dissolved 100 μg of TAP-144 and 5 mg of α-cyclodextrin, and in the manner of Experimental Example 1, the 0.1 ml/kg equivalent of the solution is administered into the nasal cavity (the dose of TAP-144: […]).
The source holds these as a separate data set.

For series [4] the following is noted: rats, rectal Witepsol W-35 suppository, sodium cefazolin 50 mg/kg.
Method: Thereafter, blood sampling from the tail vein is performed at timed intervals and the plasma cefazolin level is determined by bioassay using Bacillus subtilis PCI-219 as the test organism.
Series [5] is described as follows: Saturation solubility of cyclodextrin. The class given is physicochemical. Particulars: isotonic buffer solution (pH 7.4).
For series [6], the system named is prothrombin time (blood coagulation time). Nature of the series: Prothrombin time (blood coagulation time) after rectal heparin sodium in rats. Type of series: in vivo, rat. Particulars: heparin sodium 600 U. As to the method:
A 0.27 ml portion of each blood sample is placed in a polyethylene microtube containing 0.03 ml of 3.8 w/v percent of sodium citrate, the tube contents are stirred well and then centrifuged, and the plasma portion is subjected to prothrombin time (blood coagulation time) determination using a thromboplastin reagent (Simplastin, Ono Pharmaceutical Co., Japan). In the control group, the same procedure is followed with α-cyclodextrin-free heparin sodium. […] An increased absorption of heparin is thus shown.

Method for in vivo: as §1

Consider `O=c1[nH]cc(F)c(=O)[nH]1` [5-FU, 5-fluorouracil], for which the “AUC (0-4 hr.)” value is reported as 4.0 in series [1] (5% (w/v) α-cyclodextrin) and 1.1 in series [1] (no cyclodextrin). The Plasma level in series [1] (5% (w/v) α-cyclodextrin, 0.5 hr.) was 1370 ng/mL; in series [1] (5% (w/v) α-cyclodextrin, 1 hr.), 1720 ng/mL; in series [1] (5% (w/v) α-cyclodextrin, 2 hr.) it was 1050 ng/mL; in series [1] (5% (w/v) α-cyclodextrin, 4 hr.), 490 ng/mL; in series [1] (no cyclodextrin, 0.5 hr.) it was 970 ng/mL; in series [1] (no cyclodextrin, 1 hr.), 430 ng/mL. Moreover, the Plasma level in series [1] (no cyclodextrin, 2 hr.) came to 130 ng/mL; in series [1] (no cyclodextrin, 4 hr.), 60 ng/mL.
Turning to `CCNC(=O)[C@@H]1CCCN1C(=O)[C@H](CCCNC(=N)N)NC(=O)[C@H](CC(C)C)NC(=O)[C@@H](CC(C)C)NC(=O)[C@H](Cc1ccc(O)cc1)NC(=O)[C@H](CO)NC(=O)[C@H](Cc1c[nH]c2ccccc12)NC(=O)[C@H](Cc1c[nH]cn1)NC(=O)[C@@H]1CCC(=O)N1` [TAP-144], in the series “in vivo”, the level at 0.5 h turned out to be 28.1 ng/mL, the level at 2 h was determined as 39.2 ng/mL and the level at 4 h stood at 32.1 ng/mL. Further, the “Concentration of TAP-144 in serum” value in series [2] (female, SD, 100 ug/kg, 0.5 h) turned out to be 45.3 ng/mL. The “promotion of vaginal absorption” value in series [2] was “about 6 times”. In addition, the increase in bioavailability entry in series [3] is reported as “about 3.5 times”.
For the molecule `Cc1nnc(SCC2=C(C(=O)O)N3C(=O)[C@@H](NC(=O)Cn4cnnn4)[C@H]3SC2)s1` [sodium cefazolin], the Plasma level came to 3840 ng/mL in series [4] (10% (w/w) α-cyclodextrin, 0.5 hr.); 5320 ng/mL in series [4] (10% (w/w) α-cyclodextrin, 1 hr.); 7370 ng/mL in series [4] (10% (w/w) α-cyclodextrin, 2 hr.); 6260 ng/mL in series [4] (10% (w/w) α-cyclodextrin, 3 hr.); 5320 ng/mL in series [4] (10% (w/w) α-cyclodextrin, 4 hr.); 1760 ng/mL in series [4] (no cyclodextrin, 0.5 hr.). Further, the Plasma level in series [4] (no cyclodextrin, 1 hr.) was 2210 ng/mL; in series [4] (no cyclodextrin, 2 hr.) it was 3000 ng/mL; in series [4] (no cyclodextrin, 3 hr.), 3490 ng/mL; in series [4] (no cyclodextrin, 4 hr.) it was 2540 ng/mL.
For `OC[C@H]1O[C@@H]2O[C@H]3[C@H](O)[C@@H](O)[C@@H](O[C@H]4[C@H](O)[C@@H](O)[C@@H](O[C@H]5[C@H](O)[C@@H](O)[C@@H](O[C@H]6[C@H](O)[C@@H](O)[C@@H](O[C@H]7[C@H](O)[C@@H](O)[C@@H](O[C@H]8[C@H](O)[C@@H](O)[C@@H](O[C@H]1[C@H](O)[C@H]2O)O[C@@H]8CO)O[C@@H]7CO)O[C@@H]6CO)O[C@@H]5CO)O[C@@H]4CO)O[C@@H]3CO` [β-cyclodextrin], in series [5], the saturation solubility result is reported as “about 1.8%”.
Take heparin sodium: the Blood coagulation time is 17.2 s in series [6] (5% (w/v) α-cyclodextrin, 0.5 hr., before administration 14.3); 18.4 s in series [6] (5% (w/v) α-cyclodextrin, 0.75 hr., before administration 14.3); 19.7 s in series [6] (5% (w/v) α-cyclodextrin, 1 hr., before administration 14.3); 18.9 s in series [6] (5% (w/v) α-cyclodextrin, 1.5 hr., before administration 14.3); 19.4 s in series [6] (5% (w/v) α-cyclodextrin, 2 hr., before administration 14.3); 14.3 s in series [6] (no cyclodextrin, 0.5 hr., before administration 13.6). In addition, the Blood coagulation time in series [6] (no cyclodextrin, 0.75 hr., before administration 13.6) turned out to be 13.7 s; in series [6] (no cyclodextrin, 1 hr., before administration 13.6) it was 14.7 s; in series [6] (no cyclodextrin, 1.5 hr., before administration 13.6) it was 15.3 s; in series [6] (no cyclodextrin, 2 hr., before administration 13.6) it was 14.7 s.
